The numbers were not newly measured in US6271232A, “Collagenase-1 and stromelysin-1 inhibitors, pharmaceutical compositions comprising same and methods of their use” (Affymax Technologies, N.V., priority 1999, dated 2001), which cites them from elsewhere.

For the data set, the target named is rabbit bone proteoglycanase. Conditions: Delaisse et al. (1985).

The structures appear in SMILES notation.

The IC50 is the point on the concentration scale where inhibition reaches its midpoint. `CNC(=O)[C@H](Cc1ccc(OC)cc1)NC(=O)[C@H](CC(C)C)NC(CCNC(=O)OCc1ccccc1)C(=O)O` (stereo partly drawn) [N-[3-(benzyloxy-carbonyl)amino-1-carboxy-n-propyl]-L-leucyl-O-methyl-L-tyrosine, N-methylamide]: the half-inhibitory concentration (IC50) was 500 nM.
